# Measured values as given in PubChem BioAssay AID493130 (Broad Institute, 2011).
# Records with an inconclusive call do not appear. Calls of active or inactive are those of the source.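 Rule for the calls: active = signal-lowering compounds whose fitted half-maximal concentration is at most ten times their highest tested dose; inconclusive = flat fit between -30 and -70%, or poor fit; inactive = flat within 30%, signal rising, or potency beyond limit.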
# Target: POS-1 (Caenorhabditis elegans) binding to mex-3 RNA
# Assay: C. elegans POS-1 RNA interaction disruptors – biochemical, fluorescence polarization, cherry-picked samples, set 2, counter-screen for MEX-5 RNA-binding inhibitor project, dose response (AID 493130);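 note: POS-1 as maltose binding protein fusion made in E. coli with FITC RNA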
# Conditions: POS-1/mex-3 RNA fluorescence polarization, 1 h
row,Compound,AC50
1,CC1CCN(Cc2c(O)ccc3c2O/C(=C\c2ccco2)C3=O)CC1,3.53 µM
2,O=[N+]([O-])c1ccc(NCc2ccccc2)c2nonc12,0.434 µM
3,CCc1cc[n+](-c2nc3ccccc3nc2[N-]S(=O)(=O)c2ccc(Br)s2)cc1,1.25 µM
4,COc1ccc(-c2onc3ccc(C(C)=O)cc23)cc1,< 0.08 µM
5,O=c1[nH]c(/C=C/c2cccc3ccccc23)nc2ccccc12,> 10 µM (inactive)
6,Cc1[nH][nH]c(=O)c1C(c1ccc(O)c([N+](=O)[O-])c1)c1c(C)[nH][nH]c1=O,7.84 µM
7,O=C(O)c1ccc(Cl)c2c1C1C=CCC1C(c1ccccn1)N2 (configuration not stated),8.69 µM
8,CC(=O)Nc1cccc(C2=CC(c3ccco3)n3ncnc3N2)c1 (configuration not stated),5.81 µM
9,Nc1ccc2nc3c(=O)n(CCc4ccccc4)c(=O)[nH]c3nc2c1,1.22 µM
10,COCC1CCN(Cc2c(C(=O)N3CCc4ccccc4C3)nc3ccc(Cl)cn23)C1 (configuration not stated),> 10 µM (inactive)
11,Oc1ccc(/C=N/NC(=S)Nc2cccnc2)cc1O,9.5 µM
12,COc1ccc(Cn2c(O)c(/C=N/NC(=O)c3ccccc3O)c(=O)[nH]c2=O)cc1,6.22 µM
13,COc1ccccc1C(=O)Oc1ccc2c(c1)O/C(=C\c1ccncc1)C2=O,3.41 µM
14,O=C1NC2=C(C(=O)CCC2)C(c2ccccc2[N+](=O)[O-])N1 (configuration not stated),> 10 µM (inactive)
15,O=C1N=c2ccccc2=C1c1sc(=S)n(NC(=O)c2ccccc2)c1O,8.56 µM
16,COc1ccc(NC(=O)c2cccc(-c3ccc(O)cc3)c2)cn1,3.93 µM
17,O=C1C(Cl)=C(NC(=O)c2ccccc2)C(=O)C(Cl)=C1NC(=O)c1ccccc1,10.2 µM
18,CC(=O)Nc1ccc2cc3ccc(NC(C)=O)cc3nc2c1,6.38 µM
19,O=C(O)c1ccccc1NS(=O)(=O)c1cccc(-n2sc3ccccc3c2=O)c1,8.72 µM

# Same assay, conditions: POS-1/mex-3 RNA fluorescence polarization, 1 h; at 10 µM (top of the series)
row,Compound,"activity change, negative = inhibition"
1,O=S1(=O)c2ccccc2N=NN1Cc1ccc(Cl)c(Cl)c1,inactive
2,CN(C)c1ccc(/C=C(\C#N)C(=O)c2ccccc2)cc1,inactive
3,COc1ccc(N(CCC#N)C(=O)/C(C#N)=C\c2cccs2)cc1,inactive
4,O=c1[nH]c2ccccc2n1Cc1ccc(Cl)cc1,inactive
5,Oc1cccc(/C=N/NC(=S)Nc2cccnc2)c1O,inactive
6,CCOC(=O)CCCc1sc(N)nc1-c1[nH]c(=O)[nH]c1C,inactive
7,CN(C)CC(O)COc1ccc(C(C)(C)c2ccc(OCC(O)CN(C)C)cc2)cc1 (configuration not stated),inactive
8,Nc1c(C(=O)Nc2cccc(Cl)c2Cl)sc2nc(-c3cccnc3)ccc12,inactive
9,CCCCN1C=CC(=C2C(=O)c3ccccc3C2=O)C=C1,inactive
10,O=C(C[n+]1ccc(C(=O)N/N=C/c2ccc(OCc3ccccc3)cc2)cc1)c1ccccc1,inactive
11,COc1ccccc1-n1c(C)nc2cc(C(=O)NCc3ccc4c(c3)OCO4)ccc21,inactive
12,NC1=NC(=O)/C(=C\c2ccc(O)c([N+](=O)[O-])c2)S1,inactive
13,CC1=CC2=NC(=O)/C(=C\c3cn(C)c4ccccc34)C(=N)N2O1,inactive
14,N=c1c(S(=O)(=O)c2ccc(Cl)cc2)cc2c(=O)n3ccccc3nc2n1CC1CCCO1 (configuration not stated),inactive
15,O=C(NC1CCSc2ccccc21)c1cccc(Br)c1 (configuration not stated),inactive
16,CC(C)CNC(=O)c1ccccc1Oc1ccccc1,inactive
17,CN1CCc2c(sc(NC(=O)c3ccc(S(=O)(=O)N4CCCCCC4)cc3)c2C(N)=O)C1,inactive
18,Oc1cccc(NC(=S)N=Nc2c(O)[nH]c3ccc(Br)cc23)c1,inactive
19,CC(C)N1CCc2c(sc(NC(=O)c3ccc(S(=O)(=O)N4CCCCC4C)cc3)c2C(N)=O)C1 (configuration not stated),inactive
20,CC1(C)NC(=O)NC2(C)NC(=O)NC(C)(C)C12 (configuration not stated),inactive
21,O=c1c2ccccc2c(C=Nc2ccc(O)cc2)c(O)n1-c1nccs1,inactive
22,COc1ccc2cc3c(N)c(C(=O)NCc4ccco4)sc3nc2c1,inactive
23,CCOC(=O)NNc1ccc2nonc2c1[N+](=O)[O-],inactive
24,Cc1c(Cl)cccc1NC(=O)C(=O)NNS(=O)(=O)c1ccc(F)cc1,inactive
25,Cc1c(C(=O)O)c(C(=O)O)nc2ccc(N3CCOCC3)cc12,inactive

row,Compound,"activity change, negative = inhibition"
1,COc1ccc(N(CCC#N)C(=O)/C(C#N)=C/c2cccs2)cc1,inactive
2,COC(=O)c1ccccc1-c1ccc(C(c2c(C)[nH][nH]c2=O)c2c(C)[nH][nH]c2=O)o1,inactive
3,CN1CCN(c2nc(-c3ccccc3)nc(-c3ccccc3)c2C#N)CC1,inactive
4,N[C@@H](Cc1ccccc1)C(=O)N1CCC(C(=O)NCC(=O)Nc2ccc(F)cc2)CC1,inactive
5,O=C(NNC(=O)c1ccc([N+](=O)[O-])o1)c1ccccc1,inactive
6,Cc1cc(=O)oc(C)c1C(=O)Nc1c(C)n(C)n(-c2ccccc2)c1=O,inactive
7,COCC(C)N1CCC(Oc2cccc(C(=O)NCCc3ccccc3)c2)CC1 (configuration not stated),inactive
8,C#CCOCCOCCOCCNc1nc(N2CCN(C(=O)[C@H]([C@@H](C)O)n3cc(CCCCN)nn3)CC2)nc(N2CCN(C(=O)[C@H](C)n3cc(CCCN=C(N)N)nn3)CC2)n1,inactive
9,CC(C)=CCc1c(O)cc(O)c2c(=O)c(O[C@@H]3O[C@@H](C)[C@H](O)[C@@H](O)[C@H]3O)c(-c3ccc(O)cc3)oc12,inactive
10,COc1ccc(C2c3sc(=O)[nH]c3SCC2C(N)=O)cc1 (configuration not stated),inactive
11,Cc1ccc(C(=O)N/C(=C\c2ccc(-c3cccc([N+](=O)[O-])c3)o2)C(=O)NCCCN(C)C)cc1,inactive
12,O=C(NNC(=O)c1ccco1)c1csc(N2CCOCC2)n1,inactive
13,O=C(CSc1nnc(COc2ccccc2)o1)Nc1nccs1,inactive
14,O=[N+]([O-])c1cc(S(=O)(=O)c2ccc(O)c([N+](=O)[O-])c2)ccc1O,inactive
15,COc1ccc2cc(/C=C3\SC(=S)NC3=O)c(N3CCOCC3)nc2c1,inactive
16,COc1ccc2ccccc2c1CNCc1ccccn1,inactive
17,CCCc1nc2c(=O)n(C)c(=O)[nH]c2n1C,inactive
18,COc1ccc(C2NC(=O)N(CCCC(=O)O)C(C)=C2C(=O)OCc2ccccc2)cc1 (configuration not stated),inactive
19,N#C/C(=N\Nc1cccc(C(F)(F)F)c1)C(=O)c1ccsc1,inactive
20,COc1ccc(-c2cn[nH]c2-c2ccc(O)cc2O)cc1OC,inactive
21,CC(=O)Nc1ccc2c(c1)C(=O)N(c1cccc(C)c1)C2=O,inactive
22,Cc1ccc(S(=O)(=O)c2cc3c(=O)n4ccccc4nc3n(C3CCCCC3)c2=N)cc1,inactive
23,Cc1cccc(NC(=O)CN2C(=O)S/C(=C\c3ccc(-c4cccc(C(=O)O)c4C)o3)C2=O)c1,inactive
24,Cc1c(-c2ccc(F)cc2)nc(N)c(C#N)c1-c1ccco1,inactive
25,CCN(CC)c1ccc(N=Cc2c(O)n(-c3ccccc3C)c(=O)[nH]c2=O)cc1,inactive

row,Compound,"activity change, negative = inhibition"
1,O=C(O)c1cccc(-n2cccc2/C=C/[N+](=O)[O-])c1,inactive
2,COc1cc(N2CCCC2)c(OC)cc1/C=C(/C#N)c1cccc(Br)c1,inactive
3,COc1ccc(NC(=O)c2coc(C)c2)cc1,inactive
4,COC(=O)c1ccc(-c2ccc(C(c3c(C)[nH][nH]c3=O)c3c(C)[nH][nH]c3=O)o2)cc1,inactive
5,Cc1ccc(S(=O)(=O)c2cc3c(=O)n4cccc(C)c4nc3n(C3CCCCC3)c2=N)cc1,inactive
6,COc1ccc(N=C2S/C(=C\c3cc(C)n(C)c3C)C(=O)N2C)cc1,inactive
7,NC1=NC(=O)/C(=C\C=C\c2ccccc2)S1,inactive
8,CCc1ccc(S(=O)(=O)/N=C2\C=C(Nc3ccc(C(=O)O)cc3)C(=O)c3ccccc32)cc1,inactive
9,COc1ccc(OC)c(/C=N/NC(=O)c2ccc(=O)[nH]n2)c1,inactive
10,COc1ccc(-c2cn[nH]c2-c2ccc(OCC(=O)NN)cc2O)cc1,inactive
11,Cc1ccc(O)c(N=CC2=C(O)c3ccccc3C2=O)c1,inactive
12,CCOc1ccccc1N=NC1C(=O)N(C(N)=S)N=C1C (configuration not stated),inactive
13,O=C(NNc1ncnc2c1cnn2-c1ccc(F)cc1)c1ccco1,inactive
14,COc1ccc2nc3ccccc3nc2c1N,inactive
15,O=C(NNC(=O)c1cc(Cl)ccc1[N+](=O)[O-])c1csc(N2CCOCC2)n1,inactive
16,CCN(Cc1ccccc1)c1ccc(/C=C(\C#N)c2ccccn2)cc1,inactive
17,COCCn1c(=N)c(S(=O)(=O)c2ccc(F)cc2)cc2c(=O)n3ccccc3nc21,inactive
18,CCOC(=O)CNc1nc2ccccc2n2c(C)nnc12,inactive
19,CNC(=O)c1cc2ccc(OC)cc2oc1=O,inactive
20,CS(=O)(=O)c1ccccc1C(=O)Nc1cccc2ncccc12,inactive
21,Cc1cc(C(=O)N/N=C/c2ccc(-c3ccc([N+](=O)[O-])cc3Cl)o2)n[nH]1,inactive
22,CCOC(=O)c1c(NS(=O)(=O)c2ccccc2)n(CCCOC)c2nc3ccccc3nc12,inactive
23,Cc1nc2ccc3nc(NC(=O)c4ccc5c(c4)OCCO5)sc3c2s1,inactive
